Results published in PubChem BioAssay AID1919005 (Molecular Pharmacology Branch, DTP, NCI, 2023).

Tested on: 855422-203-R-J1-PDC complex spheroid growth
Assay: Anticancer human tumor 855422-203-R-J1-PDC patient-derived bladder carcinoma cell line growth inhibition [AhR]
Conditions: for IC50: curve of first compound; for viability, T/C: stronger effect = lower value
Outline: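 Spheroids combined tumor cells with HUVEC endothelial cells and human MSCs as stroma. AhR antagonists were paired with standard or investigational drugs, each dosed in half-log steps down from near clinical Cmax, or from 10 microM where Cmax was unknown.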

[1] = second compound 0.1 µM, first compound 0.0316 µM
[2] = second compound 0.1 µM, first compound 0.1 µM
[3] = second compound 0.1 µM, first compound 0.316 µM
[4] = second compound 0.1 µM, first compound 1 µM
[5] = second compound 0.316 µM, first compound 0.0316 µM
[6] = second compound 0.316 µM, first compound 0.1 µM
[7] = second compound 0.316 µM, first compound 0.316 µM
[8] = second compound 0.316 µM, first compound 1 µM
[9] = second compound 1 µM, first compound 0.0316 µM
[10] = second compound 1 µM, first compound 0.1 µM
[11] = second compound 1 µM, first compound 0.316 µM
[12] = second compound 1 µM, first compound 1 µM
[13] = second compound 3.16 µM, first compound 0.0316 µM
[14] = second compound 3.16 µM, first compound 0.1 µM
[15] = second compound 3.16 µM, first compound 0.316 µM
[16] = second compound 3.16 µM, first compound 1 µM
[17] = second compound 10 µM, first compound 0.0316 µM
[18] = second compound 10 µM, first compound 0.1 µM
[19] = second compound 10 µM, first compound 0.316 µM
[20] = second compound 10 µM, first compound 1 µM
[21] = second compound 0.1 µM, first compound 3.16 µM
[22] = second compound 0.1 µM, first compound 10 µM
[23] = second compound 0.316 µM, first compound 3.16 µM
[24] = second compound 0.316 µM, first compound 10 µM
[25] = second compound 1 µM, first compound 3.16 µM
[26] = second compound 1 µM, first compound 10 µM
[27] = second compound 3.16 µM, first compound 3.16 µM
[28] = second compound 3.16 µM, first compound 10 µM
[29] = second compound 10 µM, first compound 3.16 µM
[30] = second compound 10 µM, first compound 10 µM
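Also: spheroids exposed to agents for seven days before readout.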
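For viability, T/C in this document: percent of DMSO vehicle control luminescence viability.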

SMILES | IC50 (second compound 0.1 µM) [nM] | IC50 (second compound 0.316 µM) [nM] | IC50 (second compound 1 µM) [nM] | IC50 (second compound 3.16 µM) [nM] | IC50 (second compound 10 µM) [nM] | viability, T/C [1] [%] | viability, T/C [2] [%] | viability, T/C [3] [%] | viability, T/C [4] [%] | viability, T/C [5] [%] | viability, T/C [6] [%] | viability, T/C [7] [%] | viability, T/C [8] [%] | viability, T/C [9] [%] | viability, T/C [10] [%] | viability, T/C [11] [%] | viability, T/C [12] [%] | viability, T/C [13] [%] | viability, T/C [14] [%] | viability, T/C [15] [%] | further results
Nc1ncn(C2CC(O)C(CO)O2)c(=O)n1 (stereo not given) + Cc1ccccc1N=Nc1ccc(NC(=O)c2ccnn2C)c(C)c1 | > 1000 | > 1000 | > 1000 | > 1000 | > 1000 | 93.4 | 98.2 | 93.5 | 86.4 | 103 | 94.4 | 93 | 82.8 | 94 | 93 | 87.2 | 89 | 94.9 | 92.9 | 85.7 | viability, T/C (second compound 0.1 µM, first compound 0.00316 µM): 94.4%; viability, T/C (second compound 0.1 µM, first compound 0.01 µM): 98.1%; viability, T/C (second compound 0.316 µM, first compound 0.00316 µM): 102%; viability, T/C (second compound 0.316 µM, first compound 0.01 µM): 104%; viability, T/C (second compound 1 µM, first compound 0.00316 µM): 106%; viability, T/C (second compound 1 µM, first compound 0.01 µM): 98.5%; viability, T/C (second compound 3.16 µM, first compound 0.00316 µM): 97.4%; viability, T/C (second compound 3.16 µM, first compound 0.01 µM): 96.3%; viability, T/C [16]: 83.5%; viability, T/C (second compound 10 µM, first compound 0.00316 µM): 84.7%; viability, T/C (second compound 10 µM, first compound 0.01 µM): 82.1%; viability, T/C [17]: 84.3%; viability, T/C [18]: 84.3%; viability, T/C [19]: 78%; viability, T/C [20]: 76%
Nc1ccn(C2OC(CO)C(O)C2(F)F)c(=O)n1 (stereo not given) + Cc1ccccc1N=Nc1ccc(NC(=O)c2ccnn2C)c(C)c1 | 265 | 293 | 248 | 167 | 73.1 | 120 | 96.4 | 40.4 | 29.2 | 113 | 89.3 | 46.5 | 28.2 | 109 | 84.5 | 39.2 | 30.1 | 84.5 | 63.3 | 31.9 | viability, T/C [21]: 25.9%; viability, T/C [22]: 16.5%; viability, T/C [23]: 23.4%; viability, T/C [24]: 20.7%; viability, T/C [25]: 23.8%; viability, T/C [26]: 19.1%; viability, T/C [16]: 29.6%; viability, T/C [27]: 22.3%; viability, T/C [28]: 17.1%; viability, T/C [17]: 64%; viability, T/C [18]: 45.8%; viability, T/C [19]: 29.6%; viability, T/C [20]: 27.7%; viability, T/C [29]: 22.1%; viability, T/C [30]: 18%
CC1COCCN1c1cc(C2(S(C)(=N)=O)CC2)nc(-c2ccnc3[nH]ccc23)n1 (stereo not given) + Cc1cncc(-c2nc(NCCc3c[nH]c4ccccc34)c3ncn(C(C)C)c3n2)c1 | 6690 | 6720 | 6270 | 1650 | < 31.6 | 96.7 | 88.9 | 83.1 | 98.6 | 84.1 | 81.6 | 79.7 | 98.3 | 80.4 | 81.8 | 66.9 | 79.1 | 69 | 70.7 | 74.2 | viability, T/C [21]: 114%; viability, T/C [22]: 25.1%; viability, T/C [23]: 110%; viability, T/C [24]: 28.4%; viability, T/C [25]: 92%; viability, T/C [26]: 29.5%; viability, T/C [16]: 48.4%; viability, T/C [27]: 44.6%; viability, T/C [28]: 17.9%; viability, T/C [17]: 23.8%; viability, T/C [18]: 27.1%; viability, T/C [19]: 12.5%; viability, T/C [20]: 9.69%; viability, T/C [29]: 8.26%; viability, T/C [30]: 5.32%
